The target of one test is T1, HDAC6 (Homo sapiens, UniProt Q9UBN7).
T1 construct: our assay that uses approximately 0.6 nM concentration of the full-length enzyme; made in house; host or cells: HEK293/T17 cells, transient transfection
T1 sequence (Q9UBN7 1-1215): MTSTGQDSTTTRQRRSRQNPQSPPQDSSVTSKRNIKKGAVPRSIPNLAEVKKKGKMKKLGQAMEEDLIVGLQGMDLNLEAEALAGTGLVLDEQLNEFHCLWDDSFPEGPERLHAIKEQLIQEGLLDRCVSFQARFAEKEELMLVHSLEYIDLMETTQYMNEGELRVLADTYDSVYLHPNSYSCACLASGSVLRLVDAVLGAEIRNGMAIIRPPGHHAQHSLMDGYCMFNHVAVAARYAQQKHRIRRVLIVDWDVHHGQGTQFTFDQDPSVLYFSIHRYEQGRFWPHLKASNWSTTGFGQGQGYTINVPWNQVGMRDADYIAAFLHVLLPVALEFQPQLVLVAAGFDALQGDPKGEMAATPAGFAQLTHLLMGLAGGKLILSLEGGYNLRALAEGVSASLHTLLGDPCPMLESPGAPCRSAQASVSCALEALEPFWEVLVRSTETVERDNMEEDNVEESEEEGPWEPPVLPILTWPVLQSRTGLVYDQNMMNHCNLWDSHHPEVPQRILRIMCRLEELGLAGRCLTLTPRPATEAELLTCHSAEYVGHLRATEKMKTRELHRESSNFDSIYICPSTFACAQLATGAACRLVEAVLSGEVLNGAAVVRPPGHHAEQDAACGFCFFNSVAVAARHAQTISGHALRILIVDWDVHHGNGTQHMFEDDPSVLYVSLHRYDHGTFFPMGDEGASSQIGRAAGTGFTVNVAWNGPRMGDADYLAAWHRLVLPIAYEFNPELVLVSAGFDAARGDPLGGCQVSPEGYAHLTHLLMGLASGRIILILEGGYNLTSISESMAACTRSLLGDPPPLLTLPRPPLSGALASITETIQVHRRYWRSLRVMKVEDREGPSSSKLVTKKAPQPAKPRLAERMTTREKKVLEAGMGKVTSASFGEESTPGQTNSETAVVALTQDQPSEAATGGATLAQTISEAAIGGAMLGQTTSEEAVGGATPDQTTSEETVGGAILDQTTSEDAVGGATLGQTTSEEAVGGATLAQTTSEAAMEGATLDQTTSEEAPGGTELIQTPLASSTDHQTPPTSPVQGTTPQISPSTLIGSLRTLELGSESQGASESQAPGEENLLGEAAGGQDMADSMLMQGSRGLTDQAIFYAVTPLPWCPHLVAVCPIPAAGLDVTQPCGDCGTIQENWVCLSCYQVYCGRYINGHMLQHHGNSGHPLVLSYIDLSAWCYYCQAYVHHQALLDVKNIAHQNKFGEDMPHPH
As to the kind of experiment: Fluorescence-based HDAC inhibition assay, HDAC6. The note with it: Table 2. In kind it is biochemical. The method, then:
(§1) Briefly, transiently transfected cells were harvested three days post-transfection and the cell pellets resuspended in a lysis buffer (50 mM Tris, 150 mM NaCl, 10 mM KCl, 2 mM MgCl2, 10% glycerol, 0.2% NP-40, 2 Units/mL benzonase, pH 8) supplemented with a cocktail of protease inhibitors (Roche, Basel, Switzerland). Cells were lysed by sonication (30 W; 3×20 s) on ice, and the cell lysate cleared by centrifugation at 40 000×g for 30 min at 4° C. […] Purified proteins were concentrated to 1 mg/mL, aliquoted, flash-frozen in liquid nitrogen, and stored at −80° C. until further use.
(§2) Briefly, individual HDACs were preincubated with dilution series of tested inhibitors (0-100 μM) in a 384-well plate in the total volume of 40 μL for 10 min at 37° C. in a reaction buffer comprising 50 mM HEPES, 140 mM NaCl, 10 mM KCl, 1 mM TCEP, 0.1% BSA, pH 7.4. Deacetylation reaction was started by the addition of 10 μL of a 10 μM substrate into the HDAC/inhibitor mixture. Following the 30 min incubation at 37° C., the reaction was terminated by the addition of 25 μL of the trypsin solution (4 mg/mL). Fluorescence development by trypsin was carried out at 37° C. for 15 and 60 min for Ac-GAK(Ac)-AMC and Boc-Lys(TFA)-AMC substrate, respectively. […] Non-linear regression analysis was employed to calculate IC50 values using the GraphPad Prism software. […] Reactions without the enzyme or the inhibitor were used to define 0% and 100% of the HDAC activity, respectively.

In the next test the target is T2, HDAC1 (Homo sapiens, UniProt Q13547).
T2 construct: made in house; host or cells: HEK293/T17 cells, transient transfection
As to the kind of experiment: Fluorescence-based HDAC inhibition assay, HDAC1. In kind it is biochemical. Particulars: ratio HDAC1 IC50 / HDAC6 IC50, Table 2. As to the method:
as §1, §2

Structures are written as SMILES.

For four compounds, IC50 and HDAC1/6 results are on record in US20230250054A1, “SELECTIVE HISTONE DEACETYLASE 6 INHIBITORS” (The Board of Trustees of the University of Illinois, priority 2020, published 2023).

T2 sequence (Q13547 whole entry): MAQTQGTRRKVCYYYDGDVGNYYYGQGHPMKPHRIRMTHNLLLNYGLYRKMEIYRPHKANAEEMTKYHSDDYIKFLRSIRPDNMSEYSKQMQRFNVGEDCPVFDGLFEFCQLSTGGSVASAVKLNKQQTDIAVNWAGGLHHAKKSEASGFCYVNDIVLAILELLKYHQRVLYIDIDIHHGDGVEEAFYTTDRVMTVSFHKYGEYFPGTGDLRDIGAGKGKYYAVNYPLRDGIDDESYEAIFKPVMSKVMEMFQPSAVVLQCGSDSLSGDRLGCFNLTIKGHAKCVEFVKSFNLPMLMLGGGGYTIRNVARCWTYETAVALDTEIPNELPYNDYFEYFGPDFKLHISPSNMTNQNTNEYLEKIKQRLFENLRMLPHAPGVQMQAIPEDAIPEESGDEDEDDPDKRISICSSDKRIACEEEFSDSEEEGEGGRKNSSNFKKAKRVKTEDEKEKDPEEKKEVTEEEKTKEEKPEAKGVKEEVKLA

On HDAC6, `NCc1ccc(NC(=O)N(CCCCO)Cc2ccc(C(=O)O)cc2)cc1` [Compound 6d, 4-((3-(4-(Aminomethyl)phenyl)-1-(4-hydroxybutyl)ureido)methyl)benzoic acid] gave an IC50 of 16.8 µM.

On HDAC6, `NCc1ccc(NC(=O)N(CCCCO)Cc2ccc(C(N)=O)cc2)cc1` [Compound 6e, 4-((3-(4-(Aminomethyl)phenyl)-1-(4-hydroxybutyl)ureido)methyl)benzamide] registered a half-maximal inhibitory concentration (IC50) of over 30 µM.

For the compound `NCc1ccc(NC(=O)N(CCCCO)Cc2ccc(B(O)O)cc2)cc1` [Compound 6f, (4-((3-(4-(Aminomethyl)phenyl)-1-(4-hydroxybutyl)ureido)methyl)phenyl)boronic acid], the IC50 on HDAC6 was over 30 µM.

Turning to `O=C(CCCCCCC(=O)Nc1ccccc1)NO` [Vorinostat, reference compound], the HDAC1/6 at HDAC1 is given as 5.

A word on the IC50: it is the concentration that inhibits the measured activity by half. A high value points to weaker potency.
